Experimental data from patent US20040266766A1, “Selective urokinase inhibitors” (Wilex AG, priority 2001, published 2004).
Where a name gives a salt, the structure may show the parent alone. Read-outs that look alike come from different tables or passages of the source. One block for each compound: values may come before it.

Experiments:
[1] = target: T1, urokinase (uPA) (Homo sapiens, UniProt P00749); experiment: In vitro inhibition of urokinase (Ki according to Dixon, chromogenic substrate); assay type: biochemical
T1 construct: purchased Calbiochem-Novabiochem GmbH, Bad Soden, Germany
Description: In order to determine the inhibitory activity, 200 μl Tris buffer (0.05 mol/l containing the inhibitor, 0.154 mol/l NaCl, pH 8.0), 25 μl substrate (Pefachrome uPA, Pefachrome PL or Pefabloc TH in H2O; Pentapharm Ltd, Basle, Switzerland) and 50 μl urokinase (Calbiochem-Novabiochem GmbH, Bad Soden, Germany) or another appropriate protease e.g. plasmin, thrombin or FXa are incubated for 10 minutes at 30° C. After ca. 30 minutes and 30 cycles the absorption is determined at 405 nm by means of a microplate reader (Mediators PHL, Aureon Biosystems, Vienna, Austria). The Ki values were determined according to Dixon by linear regression using a computer program.

[2] = Oral bioavailability and plasma kinetics in mice (serum concentration); assay type: in vivo, Balb/c mice; settings: mouse; for concentration at 20 min / concentration at 40 min / concentration at 60 min: female, Balb/c, serum, po, read-out: c in the serum 1st analysis; for concentration at 20 min: sample at 20 minutes; for concentration at 40 min: sample at 40 minutes; for concentration at 60 min: sample at 60 minutes; for c in the serum 1st analysis: 10 mg/kg i.v.
[3] = summary table, read-out: Ki uPA

Ki uPA [1]: no inh. *)
Structure (SMILES): CC(=O)c1cccc(NC(=O)NC(CO)C(=O)NCC(=O)NCc2ccc(NC(=N)N)cc2)c1 (stereo not drawn) [WX-C314, 3-Acetylphenyl-aminocarbonyl-(D)-Ser-Gly-(4-guanidinobenzyl)amide hydrochloride]

Ki ([1]; read-out: Ki uPA): 4.1 µM
Structure (SMILES): COc1ccc(NC(=O)NC(CO)C(=O)NCC(=O)NCc2ccc(NC(=N)N)cc2)cc1 (stereo not drawn) [WX-C306, 4-Methoxyphenyl-aminocarbonyl-(D)-Ser-Gly-(4-guanidinobenzyl)amide hydrochloride]

Ki uPA [1]: no inh. *)
Structure (SMILES): N=C(N)Nc1ccc(CNC(=O)CNC(=O)C(CO)NC(=O)Nc2ccccc2Cl)cc1 (stereo not drawn) [WX-C304, 2-Chlorophenyl-aminocarbonyl-(D)-Ser-Gly-(4-guanidinobenzyl)amide hydrochloride]

Ki ([1]; list of test substances of Example 17, read-out: Ki human uPA): 0.27 µM | Ki ([1]; read-out: Ki uPA): 0.27 µM | Ki [1, 3]: 0.27 µM | concentration at 20 min ([2]; 30 mg/kg, 30 mg/kg oral): 0.2 µg/mL | concentration at 40 min ([2]; 30 mg/kg, 30 mg/kg oral): 0.2 µg/mL | concentration at 60 min ([2]; 30 mg/kg, 30 mg/kg oral): 0.2 µg/mL | concentration at 20 min ([2]; 300 mg/kg, 300 mg/kg oral): 1.5 µg/mL | concentration at 40 min ([2]; 300 mg/kg, 300 mg/kg oral): 4.6 µg/mL | concentration at 60 min ([2]; 300 mg/kg, 300 mg/kg oral): 0.6 µg/mL | c in the serum 1st analysis ([2]; time of sample collection 0): 94.4 µg/mL | c in the serum 1st analysis ([2]; time of sample collection 10): 11.0 µg/mL | c in the serum 1st analysis ([2]; time of sample collection 30): 1.3 µg/mL
Structure (SMILES): CCCCS(=O)(=O)NC(CO)C(=O)NCC(=O)NCc1ccc(NC(=N)N)cc1 (stereo not drawn) [WX-C300, n-Butyl-sulfonyl-(D)-Ser-Gly-(4-guanidinobenzyl)amide hydrochloride]

Ki ([1]; read-out: Ki uPA): 13.1 µM
Structure (SMILES): CCOC(=O)c1ccc(NC(=O)NC(CO)C(=O)NCC(=O)NCc2ccc(NC(=N)N)cc2)cc1 (stereo not drawn) [WX-C336, 4-Ethyloxycarbonylphenyl-aminocarbonyl-(D)-Ser-Gly-(4-guanidinobenzyl)amide hydrochloride]

Ki ([1]; read-out: Ki uPA): 2 µM
Structure (SMILES): N=C(N)Nc1ccc(CNC(=O)CNC(=O)C(CO)NC(=O)Nc2ccc(Oc3ccccc3)cc2)cc1 (stereo not drawn) [WX-C310, 4-Phenoxyphenyl-aminocarbonyl-(D)-Ser-Gly-(4-guanidinobenzyl)amide hydrochloride]

Ki ([1]; read-out: Ki uPA): 0.5 µM
Structure (SMILES): N=C(N)Nc1ccc(CNC(=O)CNC(=O)C(CNC(=O)OCc2ccccc2)NS(=O)(=O)Cc2ccccc2)cc1 (stereo not shown) [WX-M5, benzylsulfonyl-(D)-Dap(Z)-Gly-(4-guanidinobenzyl)amide hydrochloride]

Ki ([1]; read-out: Ki uPA): 4.9 µM
Structure (SMILES): N=C(N)Nc1ccc(CNC(=O)CNC(=O)C(CO)NC(=O)Nc2ccc([N+](=O)[O-])cc2)cc1 (stereo not drawn) [WX-C342, 4-Nitrophenyl-aminocarbonyl-(D)-Ser-Gly-(4-guanidinobenzyl)amide hydrochloride]

Ki ([1]; read-out: Ki uPA): > 20 µM
Structure (SMILES): N=C(N)Nc1ccc(CNC(=O)CNC(=O)C(CO)NC(=O)Nc2ccc3c(c2)OCO3)cc1 (stereo not drawn) [WX-C332, 3,4-Methylenedioxyphenyl-aminocarbonyl-(D)-Ser-Gly-(4-guanidinobenzyl)amide hydrochloride]

Ki uPA [1]: no inh. *)
Structure (SMILES): N=C(N)Nc1ccc(CNC(=O)CNC(=O)C(CO)NC(=O)Nc2cccc(Cl)c2)cc1 (stereo not drawn) [WX-C292, 3-Chlorophenyl-aminocarbonyl-(D)-Ser-Gly-(4-guanidinobenzyl)amide hydrochloride]

Ki ([1]; read-out: Ki uPA): > 20 µM
Structure (SMILES): COc1cc(NC(=O)NC(CO)C(=O)NCC(=O)NCc2ccc(NC(=N)N)cc2)cc(OC)c1OC (stereo not drawn) [WX-C308, 3,4,5-Tri-methoxyphenyl-aminocarbonyl-(D)-Ser-Gly-(4-guanidinobenzyl)amide hydrochloride]

Ki ([1]; read-out: Ki uPA): > 20 µM
Structure (SMILES): N=C(N)Nc1ccc(CNC(=O)CNC(=O)C(CO)NC(=O)Nc2ccccc2Br)cc1 (stereo not drawn) [WX-C322, 2-Bromophenyl-aminocarbonyl-(D)-Ser-Gly-(4-guanidinobenzyl)amide hydrochloride]

Ki ([1]; read-out: Ki uPA): 0.45 µM
Structure (SMILES): CC1(C)C2CCC1(CS(=O)(=O)NC(CO)C(=O)NCC(=O)NCc1ccc(NC(=N)N)cc1)C(=O)C2 (stereo not drawn) [WX-C296, (−)-Camphor-10-sulfonyl-(D)-Ser-Gly-4-guanidinobenzyl)amide hydrochloride]

Ki ([1]; read-out: Ki uPA): > 20 µM
Structure (SMILES): N=C(N)Nc1ccc(CNC(=O)CNC(=O)C(CO)NC(=O)Nc2cccc3ccccc23)cc1 (stereo not drawn) [WX-C328, 1-Naphthyl-aminocarbonyl-(D)-Ser-Gly-(4-guanidinobenzyl)amide hydrochloride]

Ki ([1]; read-out: Ki uPA): 2.1 µM
Structure (SMILES): N=C(N)Nc1ccc(NNC(=O)CNC(=O)[C@@H](CO)NS(=O)(=O)Cc2ccccc2)cc1 [WX-600, N-[N′-guanidino-phenyl)-hydrazinocarbonyl-methyl]-3-hydroxy-2-phenyl-methanesulfonylamino-propionamide hydrochloride]

Ki ([1]; read-out: Ki uPA): > 20 µM
Structure (SMILES): N=C(N)Nc1ccc(CNC(=O)CNC(=O)C(CO)NC(=O)Nc2cccc(Cl)c2Cl)cc1 (stereo not drawn) [WX-C334, 2,3-Dichlorophenyl-aminocarbonyl-(D)-Ser-Gly-(4-guanidinobenzyl)amide hydrochloride]

Ki ([1]; read-out: Ki uPA): 0.5 µM
Structure (SMILES): CCCCCCCCS(=O)(=O)NC(CO)C(=O)NCC(=O)NCc1ccc(NC(=N)N)cc1 (stereo not drawn) [WX-C302, n-Octyl-sulfonyl-(D)-Ser-Gly-(4-guanidinobenzyl)amide hydrochloride]

Ki ([1]; read-out: Ki uPA): 1.4 µM
Structure (SMILES): CCOC(=O)c1cccc(NC(=O)NC(CO)C(=O)NCC(=O)NCc2ccc(NC(=N)N)cc2)c1 (stereo not drawn) [WX-C312, 3-Ethoxycarbonylphenyl-aminocarbonyl-(D)-Ser-Gly-(4-guanidinobenzyl)amide hydrochloride]

Ki ([1]; read-out: Ki uPA): > 20 µM
Structure (SMILES): N=C(N)Nc1ccc(CNC(=O)CNC(=O)C(CO)NC(=O)NC23CC4CC(CC(C4)C2)C3)cc1 (stereo not drawn) [WX-C320, 1-Adamantyl-aminocarbonyl-(D)-Ser-Gly-(4-guanidinobenzyl)amide hydrochloride]

Ki ([1]; read-out: Ki uPA): 14.7 µM
Structure (SMILES): N=C(N)Nc1ccc(CNC(=O)CNC(=O)C(CO)NC(=O)Cc2ccc(O)c(O)c2)cc1 (stereo not drawn) [WX-571, 3,4-Dihydroxyphenyl-acetyl-(D)-Ser-Gly-(4-guanidinobenzyl)amide hydrochloride]

Ki ([1]; read-out: Ki uPA): > 20 µM
Structure (SMILES): N=C(N)Nc1ccc(CNC(=O)CNC(=O)C(CO)NC(=O)Nc2ccc3c(c2)OCCO3)cc1 (stereo not drawn) [WX-C326, 2,3-Dihydro-1,4-benzodioxin-6-yl-aminocarbonyl-(D)-Ser-Gly-(4-guanidinobenzyl)amide hydrochloride]

Ki ([1]; read-out: Ki uPA): 0.16 µM | Ki [1, 3]: 0.16 µM | concentration at 20 min ([2]; 30 mg/kg, 30 mg/kg oral): 0.2 µg/mL | concentration at 40 min ([2]; 30 mg/kg, 30 mg/kg oral): 0.4 µg/mL | concentration at 60 min ([2]; 30 mg/kg, 30 mg/kg oral): 0.1 µg/mL | concentration at 20 min ([2]; 300 mg/kg, 300 mg/kg oral): 17 µg/mL | concentration at 40 min ([2]; 300 mg/kg, 300 mg/kg oral): 10.7 µg/mL | concentration at 60 min ([2]; 300 mg/kg, 300 mg/kg oral): 7 µg/mL | c in the serum 1st analysis ([2]; time of sample collection 0): 66.2 µg/mL | c in the serum 1st analysis ([2]; time of sample collection 10): 18.3 µg/mL | c in the serum 1st analysis ([2]; time of sample collection 30): 2.1 µg/mL
Structure (SMILES): CC1(C)C2CCC1(CS(=O)(=O)NC(CO)C(=O)NCC(=O)NCc1ccc(NC(=N)N)cc1)C(=O)C2 (stereo not drawn) [WX-C298, (+)-Camphor-10-sulfonyl-(D)-Ser-Gly-(4-guanidinobenzyl)amide hydrochloride]

Ki ([1]; read-out: Ki uPA): > 20 µM
Structure (SMILES): N=C(N)Nc1ccc(CNC(=O)CNC(=O)C(CO)NC(=O)Nc2ccc(Br)cc2Br)cc1 (stereo not drawn) [WX-C338, 2,4-Dibromophenyl-aminocarbonyl-(D)-Ser-Gly-(4-guanidinobenzyl)amide hydrochloride]

Ki ([1]; read-out: Ki uPA): > 20 µM
Structure (SMILES): CC(=O)c1ccc(NC(=O)NC(CO)C(=O)NCC(=O)NCc2ccc(NC(=N)N)cc2)cc1 (stereo not drawn) [WX-C330, 4-Acetylphenyl-aminocarbonyl-(D)-Ser-Gly-(4-guanidinobenzyl)amide hydrochloride]

Ki ([1]; read-out: Ki uPA): 0.15 µM
Structure (SMILES): N=C(N)Nc1ccc(CNC(=O)CNC(=O)C(CN)NS(=O)(=O)Cc2ccccc2)cc1 (stereo not drawn) [WX-M6, Benzylsulfonyl-(D)-Dap-Gly-(4-guanidinobenzyl)amide bis-hydrochloride]
